# Calls of active or inactive are those of the source. The calls are words filed in the database; no cut-off is given here.
# Legend:
# SK-OV-3 [1] = assay: Antitumor activity against human SK-OV-3 cells xenografted in NSG mouse assessed as prolongation of animal survival at 30 mg/kg, ip qd treated for 83 days; type: functional, organism-based; details: time 83.0 day
# [2] = biological target: T1, METTL3/METTL14 (Homo sapiens) (UniProt Q86U44+Q9HCE5); assay: (§1) Inhibition of METTL3/METTL14-mediated m6A mRNA expression in human Calu-6 cells incubated for 24 hrs by LC-MS/MS analysis; type: cell-based
# METTL3/METTL14 [3] = biological target: T2, METTL3/METTL14 (Homo sapiens, UniProt Q86U44); assay: as §1; type: cell-based
# Cytochrome P450 3A4 = Cytochrome P450 3A4 (Homo sapiens, UniProt P08684); assay: Inhibition of CYP3A4 (unknown origin); type: ADME
# [4] = Half life in rat liver microsomes; type: ADME, Microsome
# METTL3/METTL14 [5] = biological target: T2, METTL3/METTL14; assay: Displacement of [3H]-SAM from METTL3/METTL14 (unknown origin) using 5'biotinylated-UACACUCGAUCUGGACUAAAGGUGCUC-3' RNA as substrate preincubated for 10 mins followed by substrate/[3H]-SAM addition measured after 90 mins by SPA; type: protein-complex assay
# Kasumi 1 [6] = assay: Antiproliferative activity against human Kasumi 1 cells assessed as inhibition of cell viability incubated for 72 hrs by ATPlite assay; type: functional, cell-based; details: Kasumi 1, 72 h
# [7] = Unbound fraction in Sprague-Dawley rat plasma at 1 mg/kg/day, iv measured for 24 hrs by LC-MS/MS analysis; type: ADME, organism-based; details: in vivo
# [8] = Unbound clearance in Sprague-Dawley rat at 1 mg/kg/day, iv measured for 24 hrs by LC-MS/MS analysis; type: ADME, organism-based; details: in vivo
# [9] = Unbound AUC in Sprague-Dawley rat at 1 mg/kg/day, iv measured for 24 hrs by LC-MS/MS analysis; type: ADME, organism-based; details: in vivo
# [10] = Half life in human liver microsomes; type: ADME, Microsome
# [11] = Stability in rat hepatocytes assessed as half life; type: ADME, cell-based, Hepatocyte
# [12] = Stability in human hepatocytes assessed as half life; type: ADME, cell-based, Hepatocyte
# Cytochrome P450 2C19 = Cytochrome P450 2C19 (Homo sapiens, UniProt P33261); assay: Inhibition of CYP2C19 (unknown origin); type: ADME
# Cytochrome P450 2C9 = Cytochrome P450 2C9 (Homo sapiens, UniProt P11712); assay: Inhibition of CYP2C9 (unknown origin); type: ADME
# HepG2 = assay: Cytotoxicity against human HepG2 cells assessed as cell viability at 50 uM relative to control; type: functional; details: read-out: Activity
# MV4-11 [13] = assay: Antiproliferative activity against human MV4-11 cells assessed as inhibition of cell viability incubated for 72 hrs by ATPlite assay; type: functional, cell-based; details: MV4-11, 72 h
# Caov-3 cell line = assay: Antiproliferative activity against human Caov-3 cells assessed as inhibition of cell viability incubated for 72 hrs by ATPlite assay; type: functional, cell-based; details: Caov-3, 72 h
# A549 [14] = assay: Antiproliferative activity against human A549 cells assessed as inhibition of cell viability incubated for 72 hrs by ATPlite assay; type: functional, cell-based; details: A549, 72 h
# FaDu [15] = assay: Antiproliferative activity against human FaDu cells assessed as inhibition of cell viability incubated for 72 hrs by ATPlite assay; type: functional, cell-based
# SK-OV-3 [16] = assay: Antiproliferative activity against human SK-OV-3 cells assessed as inhibition of cell viability incubated for 72 hrs by ATPlite assay; type: functional, cell-based; details: SK-OV-3, 72 h
# NCI-H1650 = assay: Growth inhibition of human NCI-H1650 cells spheroid model; type: functional, cell-based
# [17] = biological target: T1, METTL3/METTL14 (Homo sapiens); assay: (§2) Inhibition of METTL3/METTL14-mediated m6A mRNA expression in human Kasumi 1 cells incubated for 24 hrs by LC-MS/MS analysis; type: cell-based
# METTL3/METTL14 [18] = biological target: T2, METTL3/METTL14; assay: as §2; type: cell-based
# [19] = biological target: T1, METTL3/METTL14 (Homo sapiens); assay: (§3) Inhibition of METTL3/METTL14-mediated m6A mRNA expression in human MV4-11 cells incubated for 24 hrs by LC-MS/MS analysis; type: cell-based
# METTL3/METTL14 [20] = biological target: T2, METTL3/METTL14; assay: as §3; type: cell-based
# [21] = biological target: T1, METTL3/METTL14 (Homo sapiens); assay: (§4) Inhibition of METTL3/METTL14-mediated m6A mRNA expression in human FaDu cells incubated for 24 hrs by LC-MS/MS analysis; type: cell-based
# METTL3/METTL14 [22] = biological target: T2, METTL3/METTL14; assay: as §4; type: cell-based
# [23] = biological target: T1, METTL3/METTL14 (Homo sapiens); assay: (§5) Inhibition of METTL3/METTL14-mediated m6A mRNA expression in human SK-OV-3 cells incubated for 24 hrs by LC-MS/MS analysis; type: cell-based
# METTL3/METTL14 [24] = biological target: T2, METTL3/METTL14; assay: as §5; type: cell-based
# [25] = Unbound AUC in mouse at 30 mg/kg, ip; type: ADME, organism-based; details: in vivo
# Kasumi 1 [26] = assay: Induction of apoptosis in human Kasumi 1 cells incubated for 48 hrs by Caspase-Glo 3/7 assay; type: functional, cell-based
# MV4-11 [27] = assay: Induction of apoptosis in human MV4-11 cells incubated for 48 hrs by Caspase-Glo 3/7 assay; type: functional, cell-based
# MV4-11 [28] = assay: Antitumor activity against human MV4-11 cells expressing Luc-mCh-Puro xenografted in NSG mouse assessed as inhibition of cancer progression at 30 mg/kg, ip qd treated for 31 days measured upto 40 days by bioluminescence imaging analysis; type: functional, organism-based; details: time <= 40.0 day
# MV4-11 [29] = assay: Antitumor activity against human MV4-11 cells expressing Luc-mCh-Puro xenografted in NSG mouse assessed as decrease in hCD45+ cells in spleen at 30 mg/kg, ip qd measured after 28 days by flow cytometry; type: functional, organism-based; details: time 28.0 day
# MV4-11 [30] = assay: Antitumor activity against human MV4-11 cells expressing Luc-mCh-Puro xenografted in NSG mouse administered intraperitoneally once daily measured after 19 days by bioluminescence imaging analysis; details: dose 10-30 mg/kg, route ip, time 19.0 day
# FaDu [31] = assay: Antitumor activity against human FaDu cells xenografted in NSG mouse assessed as tumor growth inhibition at 30 mg/kg, ip qd treated for 20 days; type: functional, organism-based; details: time 20.0 day
# A549 [32] = assay: Antitumor activity against human A549 cells xenografted in NSG mouse assessed as prolongation of animal survival at 30 mg/kg, ip qd treated for 50 days; type: functional, organism-based; details: time 50.0 day
# A549 [33] = assay: Antitumor activity against human A549 cells xenografted in NSG mouse assessed as tumor growth inhibition at 30 mg/kg, ip qd treated for 50 days by bioluminescence imaging analysis; type: functional, organism-based; details: time 50.0 day
# SK-OV-3 [34] = assay: Antitumor activity against human SK-OV-3 cells xenografted in NSG mouse assessed as tumor growth inhibition at 30 mg/kg, ip qd treated for 52 days by bioluminescence imaging analysis; type: functional, organism-based; details: time 52.0 day
# [35] = Toxicity in NSG mouse xenografted with human FaDu cells assessed as body weight gain at 30 mg/kg, ip qd treated for 20 days; type: organism-based; details: in vivo, 480 h, time 20 day
# [36] = Toxicity in NSG mouse xenografted with human SK-OV-3 cells assessed as body weight gain at 30 mg/kg, ip qd treated for 83 days; type: organism-based; details: in vivo, 1992 h, time 83 day
# [37] = Toxicity in NSG mouse xenografted with human FaDu cells assessed as macroscopic adverse events at 30 mg/kg, ip qd treated for 20 days; type: organism-based; details: in vivo, 480 h, time 20 day
# [38] = Toxicity in NSG mouse xenografted with human A549 cells assessed as macroscopic adverse events at 30 mg/kg, ip qd treated for 50 days; type: organism-based; details: in vivo, 1200 h, time 50 day
# [39] = Toxicity in NSG mouse xenografted with human SK-OV-3 cells assessed as macroscopic adverse events at 30 mg/kg, ip qd treated for 83 days; type: organism-based; details: in vivo, 1992 h, time 83 day
# T2 sequence (Q86U44 whole entry): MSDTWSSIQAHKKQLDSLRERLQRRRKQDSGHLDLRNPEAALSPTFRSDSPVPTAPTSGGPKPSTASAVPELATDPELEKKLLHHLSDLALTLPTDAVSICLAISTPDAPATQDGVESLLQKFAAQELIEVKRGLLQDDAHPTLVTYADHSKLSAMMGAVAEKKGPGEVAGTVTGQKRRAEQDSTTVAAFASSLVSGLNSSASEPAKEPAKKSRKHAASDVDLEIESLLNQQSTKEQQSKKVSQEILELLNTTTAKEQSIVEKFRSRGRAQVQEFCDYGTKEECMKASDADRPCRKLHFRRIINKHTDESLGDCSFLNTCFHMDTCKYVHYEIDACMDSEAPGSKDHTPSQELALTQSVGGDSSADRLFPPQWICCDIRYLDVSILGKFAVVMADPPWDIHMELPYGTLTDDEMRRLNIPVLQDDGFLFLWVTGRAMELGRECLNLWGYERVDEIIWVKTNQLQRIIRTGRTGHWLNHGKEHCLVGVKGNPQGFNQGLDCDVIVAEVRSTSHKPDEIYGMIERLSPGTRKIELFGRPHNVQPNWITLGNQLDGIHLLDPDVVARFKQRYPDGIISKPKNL
# T2 sequence (Q9HCE5 whole entry, further chain): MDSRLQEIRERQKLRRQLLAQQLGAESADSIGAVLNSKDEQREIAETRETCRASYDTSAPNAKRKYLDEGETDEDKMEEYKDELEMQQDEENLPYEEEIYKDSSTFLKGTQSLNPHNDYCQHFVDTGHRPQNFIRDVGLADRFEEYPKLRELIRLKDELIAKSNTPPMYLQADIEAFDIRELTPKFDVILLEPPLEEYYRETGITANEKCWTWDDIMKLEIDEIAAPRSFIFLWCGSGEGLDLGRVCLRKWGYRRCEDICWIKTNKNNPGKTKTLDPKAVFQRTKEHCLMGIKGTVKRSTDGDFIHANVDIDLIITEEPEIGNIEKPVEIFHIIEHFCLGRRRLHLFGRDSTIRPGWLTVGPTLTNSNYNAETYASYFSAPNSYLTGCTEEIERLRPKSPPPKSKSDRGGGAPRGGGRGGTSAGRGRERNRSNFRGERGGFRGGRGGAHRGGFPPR
# Cytochrome P450 2C9, sequence (P11712 whole entry): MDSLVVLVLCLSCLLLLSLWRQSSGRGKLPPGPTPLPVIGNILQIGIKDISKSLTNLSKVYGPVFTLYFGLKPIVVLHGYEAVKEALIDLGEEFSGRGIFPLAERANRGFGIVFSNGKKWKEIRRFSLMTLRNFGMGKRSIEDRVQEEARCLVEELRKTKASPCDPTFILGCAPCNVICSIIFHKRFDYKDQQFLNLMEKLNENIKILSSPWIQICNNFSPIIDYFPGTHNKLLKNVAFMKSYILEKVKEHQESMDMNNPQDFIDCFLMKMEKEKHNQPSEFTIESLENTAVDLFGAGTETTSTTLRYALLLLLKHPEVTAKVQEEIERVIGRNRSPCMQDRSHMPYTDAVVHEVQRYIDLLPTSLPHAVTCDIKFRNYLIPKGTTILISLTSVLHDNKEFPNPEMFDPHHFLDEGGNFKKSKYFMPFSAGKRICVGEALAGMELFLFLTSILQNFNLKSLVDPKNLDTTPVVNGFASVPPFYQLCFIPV
# Cytochrome P450 2C19, sequence (P33261 whole entry): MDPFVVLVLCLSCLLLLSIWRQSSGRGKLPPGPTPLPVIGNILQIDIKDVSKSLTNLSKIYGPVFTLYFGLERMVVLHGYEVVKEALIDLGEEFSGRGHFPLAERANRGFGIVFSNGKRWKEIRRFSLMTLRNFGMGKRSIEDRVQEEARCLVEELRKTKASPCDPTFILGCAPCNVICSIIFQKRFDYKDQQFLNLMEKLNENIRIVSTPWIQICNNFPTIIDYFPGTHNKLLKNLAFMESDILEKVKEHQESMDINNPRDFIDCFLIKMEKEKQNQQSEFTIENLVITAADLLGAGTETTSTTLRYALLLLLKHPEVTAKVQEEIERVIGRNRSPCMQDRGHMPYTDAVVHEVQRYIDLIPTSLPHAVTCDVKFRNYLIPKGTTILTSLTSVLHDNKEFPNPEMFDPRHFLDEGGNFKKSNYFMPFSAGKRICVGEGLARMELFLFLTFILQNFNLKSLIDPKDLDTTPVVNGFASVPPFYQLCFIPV
# Cytochrome P450 3A4, sequence (P08684 whole entry): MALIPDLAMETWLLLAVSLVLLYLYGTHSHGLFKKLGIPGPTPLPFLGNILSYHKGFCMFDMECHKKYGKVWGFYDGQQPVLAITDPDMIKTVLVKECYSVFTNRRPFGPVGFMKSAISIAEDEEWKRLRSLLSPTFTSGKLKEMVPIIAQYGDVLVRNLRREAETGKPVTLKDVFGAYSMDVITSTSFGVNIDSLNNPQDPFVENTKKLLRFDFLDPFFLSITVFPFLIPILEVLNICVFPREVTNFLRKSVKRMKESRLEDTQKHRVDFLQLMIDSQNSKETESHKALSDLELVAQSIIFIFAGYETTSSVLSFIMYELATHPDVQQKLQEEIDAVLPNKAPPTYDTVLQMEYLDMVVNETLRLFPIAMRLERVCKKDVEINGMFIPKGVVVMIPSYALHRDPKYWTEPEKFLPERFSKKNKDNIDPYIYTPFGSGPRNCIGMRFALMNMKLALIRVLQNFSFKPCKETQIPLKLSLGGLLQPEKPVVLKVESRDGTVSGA
compound,measurement,setting,value
C[C@@H](n1cc(-c2cncc(N(C)C)c2)nn1)n1ccc(N2CCC[C@@H](NCC3CC3)C2)cc1=O,Activity,SK-OV-3 [1],Active
same,inhibition,[2],Dose-dependent-effect
same,IC50,METTL3/METTL14 [3],0.009 µM
same,IC50,Cytochrome P450 3A4,0.9 µM
same,half-life,[4],1.52 h
same,IC50,METTL3/METTL14 [5],0.002 µM
same,IC50,Kasumi 1 [6],0.037 µM
same,Fu,[7],23%
same,CL free,[8],358 mL/min/kg
same,fAUC,[9],5.1 µM·min
same,half-life,[10],2.34 h
same,half-life,[11],> 4 h
same,half-life,[12],> 4 h
same,IC50,Cytochrome P450 2C19,> 100 µM
same,IC50,Cytochrome P450 2C9,> 100 µM
same,viability at 50 µM,HepG2,90.3%
same,IC50,MV4-11 [13],0.234 µM
same,IC50,Caov-3 cell line,0.02 µM
same,IC50,A549 [14],0.169 µM
same,IC50,FaDu [15],0.05 µM
same,IC50,SK-OV-3 [16],0.011 µM
same,IC50,NCI-H1650,0.099 µM
same,inhibition,[17],Dose-dependent-effect
same,IC50,METTL3/METTL14 [18],0.005 µM
same,inhibition,[19],Dose-dependent-effect
same,IC50,METTL3/METTL14 [20],0.005 µM
same,inhibition,[21],Dose-dependent-effect
same,IC50,METTL3/METTL14 [22],0.006 µM
same,inhibition,[23],Dose-dependent-effect
same,IC50,METTL3/METTL14 [24],0.003 µM
same,fAUC,[25],175.8 µM·min
same,Activity,Kasumi 1 [26],Active
same,Activity,MV4-11 [27],Active
same,inhibition,MV4-11 [28],Active
same,Activity,MV4-11 [29],Active
same,Activity,MV4-11 [30],Dose-dependent-effect
same,inhibition,FaDu [31],Active
same,Activity,A549 [32],Active
same,inhibition,A549 [33],Active
same,inhibition,SK-OV-3 [34],Active
same,Activity,[35],Non-toxic
same,Activity,[36],Non-toxic
same,Activity,[37],Non-toxic
same,Activity,[38],Non-toxic
same,Activity,[39],Non-toxic

# Source: ChEMBL document CHEMBL6121062, “Discovery, Optimization, and Preclinical Pharmacology of EP652, a METTL3 Inhibitor with Efficacy in Liquid and Solid Tumor Models” (J Med Chem, 2025)
